Common to all, as to format: cell-based
Series [1] relates to HDFa cells. The experiment in a line: Photo repair effectiveness in human fibroblasts (Neutral Red viability, treatment after irradiation). The following applies: for Cell viability: irradiated control 63.06%; for Effectiveness Photo-repair (%): irradiated. On the procedure:
HDFa cells were put in culture medium for 24 hours in 96-well plates to form monolayers at 37° C. and humidified air with 5% CO2. Afterwards the culture medium was changed for D-PBS and the cells were irradiated with a solar simulation lamp at ˜40 J/cm^2 for 180 min at room temperature. A control plate was kept in the dark for the same time at room temperature.
Afterwards 0.5 mg/mL, 0.1 mg/mL, 0.01 mg/mL of Ac-L-Tyr-L-Glu-L-Lys-L-Leu-L-Gln-L-Val-NH2 (Ac-SEQ ID NO:22-NH2) in culture medium or culture medium alone (control) were added to the cells and they were incubated for 24 hours in darkness at 37° C. and humidified air with 5% CO2.
(§1) The cell viability was determined with the Neutral Red dye, measuring the absorbency at 540 nm in a spectrophotometer.
The photorepair effectiveness was determined by comparing the viability obtained in cells treated with Ac-L-Tyr-L-Glu-L-Lys-L-Leu-L-Gln-L-Val-N H2 (Ac-SEQ ID NO:22-NH2) with the irradiated and non-irradiated control cell response.

For series [2], the system named is Fibroblasts from a sample of human skin. Put plainly: Alkaline comet assay, protection against genotoxicity induced by photo-activated benzo[a]pyrene (BaP). The following applies: 0.01 mg/mL. The protocol: Fibroblasts from a sample of human skin were isolated and incubated with 0.01 mg/mL of Ac-L-Tyr-L-Glu-L-Lys-L-Leu-L-Gln-L-Val-NH2 (Ac-SEQ ID NO:22-NH2) or carrier (control) with and without the presence of 40 μM BaP for 2 hours at 37° C. Once this contact time was over the cells were irradiated with 90 KJ/m^2 UVA/visible light (320-800 nm) for a maximum of 2 min at 4° C. to induce photo activation of BaP which damages the DNA. This damage was analyzed by the alkaline comet assay, detecting the DNA breakages. The protective effectiveness of the damage to the DNA of the different treatments was determined by analyzing the images using the software Fenestra Komet 5.5, expressing the damage to the DNA as the Olive Tail Moment (OTM; arbitrary units) and the χ^2 OTM function was determined, related to the quantity of damaged DNA, with the software TableCurve 2D.
As a negative control all the non-irradiated treatments were included (control, 40 μM BaP, 0.01 mg/mL of Ac-SEQ ID NO:22-NH2 and 0.01 mg/mL of (Ac-SEQ ID NO:22-NH2)+40 μM BaP). In table 14 the protective effectiveness results of Ac-SEQ ID NO:22-NH2 in human fibroblasts are shown.
The protection percentage conferred by the compound Ac-SEQ ID NO:22-NH2 against DNA damage induced by BaP was shown as the relationship of the value of χ^2 OTM for treatment with the compound Ac-SEQ ID NO:22-NH2 in the presence of photo-activated BaP with regard to the value of χ^2 OTM of the treatment with photo-activated BaP according to the formula resulting in a protection percentage conferred by the compound Ac-SEQ ID NO:22-NH2 against damage to DNA induced by BaP of 84.3%.

The subject of series [3] is HDFa cells. Put plainly: Photoprotective effectiveness in human fibroblasts (Neutral Red viability after solar simulation irradiation). The following applies: for Effectiveness Photoprotection (%): irradiated; for Cell viability: preincubated 1 hour, irradiated ~60 J/cm^2, irradiated control 50.72%. The protocol:
HDFa cells were put in culture medium for 24 hours in 96-well plates to form monolayers. Afterwards the cells were preincubated in darkness with 0.5 mg/mL, 0.1 mg/mL, 0.01 mg/mL of Ac-L-Tyr-L-Glu-L-Lys-L-Leu-L-Gln-L-Val-NH2 (Ac-SEQ ID NO:22-NH2) in PBS or PBS alone (control) for 1 hour at 37° C. and humidified air with 5% CO2.
The cells were irradiated with a solar simulation lamp at ˜60 J/cm^2 for 210 min at room temperature. A control plate was kept in the dark for the same time at room temperature. Once irradiation was completed the culture medium was changed for a new one and the plates were incubated for another 24 hours.
as §1
The photoprotective effectiveness was determined by comparing the viability obtained in cells treated with Ac-L-Tyr-L-Glu-L-Lys-L-Leu-L-Gln-L-Val-NH2 (Ac-SEQ ID NO:22-NH2) with the irradiated and non-irradiated control cell response.

In series [4] the test system is senescence-associated β-galactosidase (SA-β-Gal) in HDFa cells. The experiment in a line: Reduction of cell senescence in human fibroblasts (SA-β-Gal histochemical detection). The settings on record: for Proportion of positive SA-β-gal cells: 24 hours, HDF, control 27.28. The protocol:
A widely used assay to evaluate cell senescence is histochemical detection of the activity, of the β-galactosidase, called SA-β-Gal. The activity of the β-galactosidase is derived from the increase in the lysosomal content of senescent cells, which enables the detection of the lysosomal β-galactosidase at pH 6.0. The β-galactosidase is considered a marker of senescence both in vitro and in vivo.
With this objective, HDFa cells from phase 4 of a person were seeded in 96-well plates at 10,000 cells/well in culture medium 106 supplemented with 2% LSGS. After 24 hours the culture medium was removed and the cells were treated with 0.025 mg/mL and 0.01 mg/mL of Ac-L-Tyr-L-Glu-L-Lys-L-Leu-L-Gln-L-Val-NH2 (Ac-SEQ ID NO:22-NH2) in culture medium 106 for another 24 hours at 37° C. and humidified air with 5% CO2.
As a positive control of cell senescence (old fibroblasts) HDFa from phase […] of a person were used treated with culture medium; as a negative control of cell senescence (juvenile fibroblasts) HDFa from phase 4 were used from a person treated with culture medium.
After the incubation period the activity of the senescence-associated β-galactosidase (SA-β-Gal) was determined with the Senescence Cells Histochemical Kit.

As for “Ac-YEKLQV-NH2 [Ac-SEQ ID NO: 22-NH2, Ac-L-Tyr-L-Glu-L-Lys-L-Leu-L-Gln-L-Val-NH2]”, the Cell viability is reported as 71.99% in the series with HDFa cells [1] (0.01 mg/mL for 24 hours after irradiation ~40 J/cm^2); 70.71% in the series with HDFa cells [1] (0.1 mg/mL for 24 hours after irradiation ~40 J/cm^2); 71.40% in the series on HDFa cells [1] (0.5 mg/mL for 24 hours after irradiation ~40 J/cm^2); 58.96% with HDFa cells [3] (0.01 mg/mL); 60.90% with HDFa cells [3] (0.1 mg/mL); 68.52% with HDFa cells [3] (0.5 mg/mL). In addition, the “Effectiveness Photo-repair (%)” value in the series with HDFa cells [1] (0.01 mg/mL) was 14.16%; with HDFa cells [1] (0.1 mg/mL) it was 12.13%; in the series with HDFa cells [1] (0.5 mg/mL), 13.23%. Moreover, the “χ^2 OTM” value in series [2] (40 μM BaP, irradiation with UVA/visible, BaP alone 11.38) is recorded as 3.52; in series [2] (40 μM BaP, no irradiation, BaP alone 2.07), 2.18; in series [2] (no BaP, irradiation with UVA/visible, control 2.25), 2.09; in series [2] (no BaP, no irradiation, control 2.08), 2.26. Moreover, in series [2] (photo-activated 40 μM BaP), the “protection percentage against damage to DNA induced by BaP” value was 84.3%. Also, the “Effectiveness Photoprotection (%)” value was 16.24% in the series on HDFa cells [3] (0.01 mg/mL), 20.06% in the series on HDFa cells [3] (0.1 mg/mL) and 35.10% in the series on HDFa cells [3] (0.5 mg/mL). In addition, the “Proportion of positive SA-β-gal cells” value worked out at 7.02 in series [4] (0.01 mg/mL) and 16.90 in series [4] (0.025 mg/mL). In series [4] (HDFa), the “Effect on proportion of cells containing β-galactosidase (in words)” value is given as “reduced the proportion of cells containing β-galactosidase”.

Source of the values: patent US9511010B2, “Compounds useful in the treatment and/or care of the skin, hair and/or mucous membranes and their cosmetic or pharmaceutical compositions” (Lubrizol Advanced Materials, Inc., priority 2012, dated 2016).
